From PMC11641365, “Evaluation of In Vitro Biological Activity of Flavanone/Chromanone Derivatives: Molecular Analysis of Anticancer Mechanisms in Colorectal Cancer” (International Journal of Molecular Sciences, 2024)

How the values were obtained:
Type in all cases: cell-based, human
LoVo [1] = assay: Cell cycle analysis via flow cytometry (propidium iodide); conditions: compound at IC50, 24 h, vs control
Protocol: (§1) The most commonly used fluorescent dyes for cell cycle analysis are fluorochromes that penetrate the cell membrane into the interior of permeabilized cells and bind stoichiometrically to DNA via intercalation, e.g., DAPI, propidium iodide (PI). The analysis is performed on cells fixed in ethanol. In this work, the cell cycle analysis was performed using the method described by Darzynkiewicz and Juan.
(§2) Cells (10 × 10^3) were seeded in 35 mm dishes and cultured in the medium for 24 h to attain the logarithmic growth phase. […] Subsequently, cells were trypsinized and centrifuged for 10 min at 400× g at 4 °C. The cell suspension in 100 μL of PBS was fixed in 1 mL of 70% ethanol (−20 °C) and stored at this temperature until analysis. Immediately before analysis, the ethanol-fixed cell suspension was centrifuged at 10,000 rpm for 10 min at 4 °C. The pellet was washed with cold (4 °C) PBS to remove residual ethanol, and the cell suspension was centrifuged again under the same conditions. A volume of 300 μL of PBS containing 4 mg/mL propidium iodide (final concentration 75 μM) and 1 mg/mL RNAse A (final concentration 20 μg/mL) was added to the cell pellet and incubated for at least 30 min at 37 °C in the dark. Stained cells were analyzed using a flow cytometer (Becton Dickinson, Franklin Lakes, NJ, USA), counting 10,000 cells in each sample. Data were analyzed using FlowJo 10.10 software (FlowJo, Williamson Way Ashland, OR, USA).

HCT 116 = assay: as above; conditions: compound at IC50, 24 h, vs control
Protocol: as §1, §2

HT-29 = assay: Intracellular GSH level, monochlorobimane (MCB) probe; conditions: compound at IC50, 24 h, vs control
Protocol: The spectrofluorimetric method with monochlorobimane (MCB; Sigma-Aldrich; St. Louis, MO, USA) was used to determine GSH. Monochlorobimane reacts with glutathione in a reaction catalyzed by cellular glutathione S-transferase. The reaction produces a fluorescent bimane-glutathione conjugate (GSH-MCB). A major advantage of MCB is its ability to penetrate the cell membrane, which is why it is used as a probe to determine the amount of GSH in living cells.
Cells were seeded in black 96-well fluorometric microplates at a density of 10 × 10^3 cells/mL. […] Following compound incubation, the medium was removed, and the cell monolayers were washed twice with HBSS (140 mM NaCl, 5 mM KCl, 0.8 mM MgCl2, 1.8 mM CaCl2, 1 mM Na2HPO4, 10 mM HEPES, and 1% glucose). A solution of MCB at a final concentration of 40 μM was added to each well and incubated in a CO2 cell culture incubator at 37 °C for 20 min. A 40 mM MCB stock solution was prepared by dissolving 9 mg of the reagent in 1 mL of absolute ethanol. Fluorescence was measured using a Perkin-Elmer LS-5B spectrofluorometer (Waltham, MA, USA) at the following excitation and fluorescence emission wavelengths: λex = 380 nm/λem = 470 nm. After incubation with MCB, the cells were lysed with 50 μL of lysis buffer (10 mM TRIS-HCl; pH 8 containing 0.1% Triton X-100). In order to normalize the number of cells in individual samples, the amount of DNA was determined by adding 50 μL of ethidium bromide (EB, final concentration 0.2 mM) to each well after measuring the MCB fluorescence and measuring the EB fluorescence at an excitation wavelength of λex = 530 nm and an emission wavelength of λem = 590 nm. The results obtained using the standard curve were converted to nM of GSH.

LoVo [2] = assay: MTT test after pre-incubation with antioxidants NAC or Trolox; conditions: vs cells without antioxidant pre-incubation
Protocol: Moreover, the elevation of ROS levels was accompanied by a decrease in intracellular GSH. To investigate the role of ROS in the cytotoxic activity of flavonoid derivatives against cancer cells, LoVo cancer cells were pre-treated with antioxidants, NAC or a water-soluble derivative of vitamin E (Trolox), for 1 h before exposure to the studied compounds. Subsequently, the MTT assay was performed.
To elucidate the involvement of ROS in the cytotoxic effects of the investigated compounds, cells were pre-treated with the vitamin E (Trolox, Sigma-Aldrich, St. Louis, MO, USA) or N-Acetylcysteine (NAC) antioxidants for 1 h. Cells were seeded into sterile, colorless 96-well microplates at a density of 6–8 × 10^3 cells/mL, contingent upon the cell line. Following a 24 h culture period, Trolox or NAC was added at a final concentration of 50 μM and 3 mM, respectively. After 1 h of incubation, the antioxidants were removed by washing, and test compounds were administered at appropriate concentrations (10–200 μM) in fresh cell culture medium, followed by a 24 h incubation. The MTT assay was then conducted under identical experimental conditions, as detailed in Section 2.2.

colon cancer cells = assay: Reactive nitrogen species level, DAF-FM probe, all tested cell lines; conditions: any of the tested cell lines, compound at IC50, 24 h
Protocol: Diaminofluorescein-FM diacetate (DAF-FM diacetate, Invitrogen, Carlsbad, CA, USA), a cell-permeable fluorescent probe, is widely utilized for the detection and quantification of reactive nitrogen species (RNS), primarily nitric oxide (NO). […] Upon interaction with NO, however, it undergoes a chemical transformation resulting in the formation of a highly fluorescent benzotriazole derivative with excitation and emission maxima at 495 and 515 nm, respectively.
Cells were seeded in black 96-well fluorometric microplates at a density of 10 × 10^3 cells/mL. […] Following compound incubation, the medium was removed, and the cell monolayers were washed twice with HBSS (140 mM NaCl, 5 mM KCl, 0.8 mM MgCl2, 1.8 mM CaCl2, 1 mM Na2HPO4, 10 mM HEPES, and 1% glucose). […] Fluorescence measurements were conducted using a Perkin-Elmer LS-5B spectrofluorometer (MA, USA) at the following excitation and fluorescence emission wavelengths: λex = 495 nm/λem = 515 nm. The fluorescence intensity of control cells was arbitrarily assigned a value of 100%. The results were expressed as percentages of control, calculated by comparing the fluorescence intensity ratio of the test samples to controls (100%). The fluorescence of samples was denoted as Δf in relation to the control.

Compound | Increase in the G2/M phase cell percentage (LoVo [1]) | Increase in the G2/M phase cell fraction (HCT 116) | Decrease in GSH levels (HT-29) | Change of the IC50 value after pre-incubation with Trolox (LoVo [2]) | Change in RNS levels (colon cancer cells)
O=C1/C(=C/c2ccccc2)COc2ccccc21 [Compound 1] | approximately 10% | approximately 10% | 25–30% | – | –
COc1cccc(/C=C2/C(=O)c3ccccc3OC2c2ccccc2)c1 (stereo not drawn) [Compound 3] | approximately 35% | approximately 30% | – | Statistically significant increases in the IC50 value | no significant changes
O=C1/C(=C/c2ccccc2)C(c2ccccc2)Oc2ccccc21 (stereo not drawn) [Compound 5] | approximately 20% | 20% | 25–30% | Statistically significant increases in the IC50 value | no significant changes
